Test results reported in article PMC12040169 (PLOS Biology, 2025).

assay: in vitro; details: human, hela cells, % viability

SMILES | viability at 28.5 h, 10 µM [%]
C=CCn1c(-c2sc(NC(=O)c3ccc(C)c(C)c3)nc2C)n[nH]c1=S [CBK295294] | 88.7
Nc1nc(N)c2cc(C(F)(F)F)ccc2n1 [CBK025934] | 66.4
CC(=O)N1CCC[C@H]2NC(=O)CNC(=O)C3(C/C=C/C[C@H]21)CCN(C(=O)CCC(=O)O)CC3 [CBK292174] | 85
CCN1CCN(Cc2cnc(-c3ccccn3)nc2)CC1=O [CBK306678] | 99.9
CN1CCN(CCOC(=O)N2CCN(C(c3ccccc3)c3ccccc3)CC2)CC1 [CBK200419] | 89
CC(C)(C)c1cn(C[C@H]2CC3CCN2C[C@@H]3C(=O)NCc2ccc(F)cc2)nn1 (stereo partly shown) [CBK289081] | 102
CC(CCCC(C)(C)O)Nc1cncc(-c2ccc(C(N)=O)cc2)n1 (stereo not shown) [CBK066071] | 103
CC(=O)N1CC2(CCN(C(=O)c3ccco3)CC2)Nc2ccccc21 [CBK284447] | 95.5
Cc1oc(-c2cccc(Cl)c2)cc1C(=O)O [CBK045856] | 78
OCCN1CCN(CC(O)COCc2ccccc2)CC1 (stereo not shown) [CBK278262C] | 90.6
COc1ccccc1OCCSc1nnnn1C1CCCCC1 [CBK141884] | 96.6
Cn1c(SCc2c(Cl)cccc2[N+](=O)[O-])nnc1-c1ccc(NC(=O)c2ccccc2Cl)cc1 [CBK264983] | 81.1
COc1ccc(C2SCCCS2)cc1C(C)(C)C [CBK018886] | 105
O=C(Cc1ccc(Cl)c(Cl)c1)NCCc1c[nH]c2ccc(Cl)cc12 [CBK159749] | 100
CN(C)S(=O)(=O)c1cccc(C(=O)NCc2ccco2)c1 [CBK270135] | 94.7
O=C(O)COc1ccc(Br)cc1C(c1c[nH]c2ccccc12)c1c[nH]c2ccccc12 [CBK265720] | 94.6
O=c1[nH]c(=O)n(Cc2ccccc2)c2nc[nH]c12 [CBK291140] | 108
Cc1nn(-c2ccccc2)c(Cl)c1C1NC(=O)c2c(sc(C)c2C)N1 (stereo not shown) [CBK288086] | 96
Cc1cc(CNC(=O)c2cc3ccc(Cl)cc3[nH]2)[nH]n1 [CBK281391] | 87.8
COc1ccc(CN(C)c2c(C)nc3c(OCC(=O)N4CCOCC4)cccn23)cc1 [CBK147469] | 102
O=C(COc1ccccc1)Nc1ccccc1Sc1ncnc2sc3c(c12)CCCC3 [CBK266171] | 98.4
Cc1sc2nc(C(C)C)n(C3CCNCC3)c(=O)c2c1C [CBK282407] | 100
CN(C(=O)CN1CCN(c2cc(-c3cccc4oc5ccccc5c34)ncn2)CC1)c1ccccc1 [CBK091130] | 97.8

SMILES | viability at 28.5 h, 10 µM [%]
O=C(NC1CCCC1)c1cc(=O)n(Cc2ccc(Cl)cc2)c2ccccc12 [CBK294464] | 104
Cc1nc(N2CCCCC2)ncc1C(=O)NCCc1cc[nH]n1 [CBK307035] | 113
CC(C)(C)NC(=O)N/N=C/c1[nH]ncc1Br [CBK017439] | 96
CC1=CC(C)C(CN2CC34C=CC(O3)C(C(=O)O)C4C2=O)C(C)C1 (stereo not shown) [CBK287005] | 96.1
CC1(C)CN(c2ccc(S(N)(=O)=O)cc2)C1=O [CBK020416] | 90.6
O=C(Cn1ncc2cccn2c1=O)OCC(F)(F)F [CBK283554] | 93.7
O=[N+]([O-])c1ccc(S(=O)(=O)Nc2nnc(C3CCCCC3)s2)cc1 [CBK200049] | 94.8
O=C(NCCc1nc2ccccc2[nH]1)c1cccs1 [CBK020529] | 99.4
Cc1cc(C(C)(C)C)cc(S(=O)(=O)Nc2ccc(O)c(C(=O)O)c2)c1C [CBK266196] | 101
Nc1nc(SCCCC(=O)NC2CCCCC2)nc2sc3c(c12)CCCC3 [CBK266176] | 99.7
CC1CCC(C(=O)NC(Cc2ccccc2)C(=O)O)CC1 (stereo not shown) [CBK287080] | 90.5
CC(C)N1CCOC[C@H]1c1nc(-c2ccc(S(C)(=O)=O)cc2)c[nH]1 [CBK289301] | 91.2
CN(Cc1ccccc1)Cc1nc2c([nH]1)c(=O)[nH]c(=O)n2C [CBK269442] | 106
CN1C(=O)COc2ccccc2CCCC[C@@H]2[C@H]1CCCN2CC(N)=O [CBK292098] | 105
COC(=O)c1c(NC(=O)CCCC(=O)O)sc2c1CCCCC2 [CBK265393] | 85.4
CCN(CC)C(=O)C1CCCN(C(=O)NC2CCc3ccccc32)C1 (stereo not shown) [CBK156156] | 92.2
O=C(O)CNS(=O)(=O)c1ccc2ccccc2c1 [CBK034460] | 94.1
O=C(/C=C/c1ccccc1)NC(NCc1cccnc1)C(Cl)(Cl)Cl (stereo not shown) [CBK261804] | 95.3
CC(C)Nc1cc(Sc2cccc(C(=O)O)c2)ncn1 [CBK093583] | 117
O=C(NCCSCc1ccco1)Nc1cccc(Cl)c1 [CBK268277] | 99.2
COc1ccccc1-n1c(C)c(C(C)=O)c2cc(O)ccc21 [CBK115320] | 86.3
Cc1csc(NC(=O)Cc2ccccc2F)n1 [CBK288252] | 84.3
C[C@H](Nc1cncc(-c2ccc(F)cc2F)n1)c1ccccc1 [CBK065684] | 98.9

SMILES | viability at 28.5 h, 10 µM [%]
CC(C)(C)OC(=O)N1CCC2(CC1)NC(=O)c1cc(-c3cccc(S(C)(=O)=O)c3)ccc1O2 [CBK131967] | 102
Cc1ccnc(NC(=O)c2ccccc2)c1 [CBK004031] | 90.6
CCc1c(C)nc2c(C(=O)NCc3cc(C)on3)cnn2c1C [CBK162150] | 82.5
c1ccc(-c2onc3cc4c(cc23)OCCO4)cc1 [CBK287869] | 82.8
Cc1nc(C2CCCN2C(=O)CC2CCCC2)nc2c1CCCN2Cc1ccccn1 (stereo not shown) [CBK286252] | 105
O=C(C1CCC1)N1CCC(n2nc(C3CC3)ccc2=O)CC1 [CBK284239] | 104
COc1ccc(C(=O)NC(=N)NCCc2c[nH]c3ccccc23)cc1 [CBK267840] | 111
O=[N+]([O-])c1ccc(NCCNS(=O)(=O)c2ccccc2)cc1 [CBK261948] | 96.1
CCOc1ccc(-c2c(C3CC3)n[nH]c2N)cc1OCC [CBK288177] | 107
Cc1ccc2nc(NCC(=O)O)nc(-c3ccccc3)c2c1 [CBK287002] | 84.4
Cn1cc(C(=O)NC2CCN(C(=O)c3cccc(C#N)c3)CC2)cn1 [CBK305673] | 110
CN(CCN1CCCCC1)C(=O)c1ccccc1Cn1cccn1 [CBK281904] | 105
CC(C)NC(=O)N[C@H]1CCN2C(=O)c3ccc(Cl)cc3NC(=O)[C@H]12 [CBK289343] | 99.5
O=C(NCCN1CCOCC1)c1cc(Br)cnc1N1CCOCC1 [CBK076202] | 104
O=C(O)CNS(=O)(=O)c1cc(Cl)sc1Cl [CBK034452] | 91.4
Cc1cc(=O)oc2cc(NC(=S)NNC(=O)c3ccc4c(c3)c(C)c(C)n4Cc3ccccc3)ccc12 [CBK267138] | 89.6
CN(C)CCN(Cc1ccccc1)C(=O)NCc1c(Cl)cccc1Cl [CBK155107] | 97.3
O=C(O)COc1ccccc1/C=N/NC(=O)Cc1ccc(Br)c2ccccc12 [CBK263116] | 85.6
O=C(N[C@H]1C[C@H](c2nnc(CO)n2C2CC2)C1)c1ccc(Cl)c(F)c1 [CBK307093] | 91.4
CC(=O)Nc1onc(C)c1-c1nc(-c2ccc(Cl)cc2Cl)cs1 [CBK067735] | 101
CCOc1ccc(S(=O)(=O)N2CCCN(CCCC#N)CC2)c2cccnc12 [CBK062935] | 98.5
CC(C)CC(NC(=O)C1CCC(C)CC1)C(=O)O (stereo not shown) [CBK287212] | 88.2
Cn1nc(-c2ccc(S(=O)(=O)Nc3cccc(Cl)c3Cl)s2)cc1C(F)(F)F [CBK067548] | 92.2

SMILES | viability at 28.5 h, 10 µM [%]
CCC1(CC)OC(N[C@@H](CO)c2ccccc2)=NC1=O [CBK126756] | 92.8
COc1ncccc1CNC(=O)Nc1cccn(CC(F)(F)F)c1=O [CBK305216] | 113
O=c1c(-c2cc(O)[nH]n2)c(O)c2ccccc2n1Cc1ccccc1 [CBK291160] | 97.2
O=C(O)c1cccnc1SCc1cc2c(cc1Cl)OCO2 [CBK287178] | 93.9
Cc1ccc(SC(C)C(=O)O/N=C(\N)c2ccccn2)cc1 (stereo not shown) [CBK268567] | 111
C[C@H](Nc1nc(-c2cc(C(F)(F)F)cc(C(F)(F)F)c2)cnc1N)c1ccccc1 [CBK063768] | 106
COc1ccc(C(C)NC2CCN(c3nc(C)cs3)CC2)cc1F (stereo not shown) [CBK306362] | 94.7
CSc1ncc(Cl)c(C(=O)Nc2sc3c(c2C(=O)NCc2ccco2)CCCC3)n1 [CBK268971] | 96.6
CN1CCN(CCCOc2ccccc2OCc2ccccc2)CC1 [CBK269630C] | 90.4
C=CCNC(=O)CSc1nc2sc(C)c(C)c2c(=O)[nH]1 [CBK287350] | 88.2
c1ccc(-c2nnc(Cn3cncn3)o2)cc1 [CBK011113] | 88
CCCCC(NC(=O)c1cc2ccccc2[nH]1)C(=O)O (stereo not shown) [CBK286647] | 85.9
NC(=O)[C@@H]1C[C@@H](O)[C@H](O)[C@H]2[C@@H]1N(c1ccc(Cl)cc1)C(=S)N2CC1CCCCC1 [CBK288933] | 86.8
Clc1ccc(SCCN2CCNCC2)cc1 [CBK266077G] | 94.2
CCN(CC)Cc1c(O)ccc2c(C#N)c(C)n(-c3ccccc3)c12 [CBK261527C] | 94.9
CCCC(=O)Nc1cccnc1N1CCNCC1 [CBK004732T] | 94
FC(F)(F)c1ccc(CN2CCCN(c3cc(OC4CCCCC4)ncn3)CC2)cc1 [CBK083277T] | 112
CC(C)Nc1nccnc1OC1CCNC1 (stereo not shown) [CBK115279] | 92.5
O=C(Cn1ncn2nc(-c3ccccc3)cc2c1=O)Nc1ccc(F)cc1 [CBK287759] | 85.8
O=C(NCCNC(=O)c1ccccn1)c1ccccn1 [CBK265654] | 101
O=C(CCn1ncc2ccccc21)N1CCC(c2ccncc2)CC1 [CBK282395] | 82
O=C(c1cnccn1)N1CCN(CCc2ccccc2)CC1 [CBK200224] | 101
